In ChEMBL document CHEMBL1201862, “PubChem BioAssay data set” (2004) one finds IC50, CC50 and AC50 data, which are given here for three molecules.

The source made the active and inactive calls.

For experiment [1], the target named is T1, Sentrin-specific protease 8 (Homo sapiens, UniProt Q96LD8).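 Further: kinetic enzyme assay of SENP8 cleaving a Nedd8 protein substrate, dose-response confirmation of screening hits.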
T1 sequence (Q96LD8 whole entry): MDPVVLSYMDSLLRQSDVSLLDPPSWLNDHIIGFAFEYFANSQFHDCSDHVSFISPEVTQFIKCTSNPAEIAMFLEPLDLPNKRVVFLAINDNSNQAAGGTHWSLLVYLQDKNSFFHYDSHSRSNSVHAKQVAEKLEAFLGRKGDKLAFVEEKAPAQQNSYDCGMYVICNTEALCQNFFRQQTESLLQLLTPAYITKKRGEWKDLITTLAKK
The experiment is classed as functional.

Experiment [2] has as its system Vero. Kind of experiment: viability of Vero cells under compound – cytotoxicity control for flavivirus capping enzyme inhibitors (AID 588742). It counts as functional. To be noted: Chlorocebus sabaeus.
Experiment [3] deals with T2, Hexokinase-1 (Homo sapiens, UniProt P19367).
T2 sequence (P19367 whole entry): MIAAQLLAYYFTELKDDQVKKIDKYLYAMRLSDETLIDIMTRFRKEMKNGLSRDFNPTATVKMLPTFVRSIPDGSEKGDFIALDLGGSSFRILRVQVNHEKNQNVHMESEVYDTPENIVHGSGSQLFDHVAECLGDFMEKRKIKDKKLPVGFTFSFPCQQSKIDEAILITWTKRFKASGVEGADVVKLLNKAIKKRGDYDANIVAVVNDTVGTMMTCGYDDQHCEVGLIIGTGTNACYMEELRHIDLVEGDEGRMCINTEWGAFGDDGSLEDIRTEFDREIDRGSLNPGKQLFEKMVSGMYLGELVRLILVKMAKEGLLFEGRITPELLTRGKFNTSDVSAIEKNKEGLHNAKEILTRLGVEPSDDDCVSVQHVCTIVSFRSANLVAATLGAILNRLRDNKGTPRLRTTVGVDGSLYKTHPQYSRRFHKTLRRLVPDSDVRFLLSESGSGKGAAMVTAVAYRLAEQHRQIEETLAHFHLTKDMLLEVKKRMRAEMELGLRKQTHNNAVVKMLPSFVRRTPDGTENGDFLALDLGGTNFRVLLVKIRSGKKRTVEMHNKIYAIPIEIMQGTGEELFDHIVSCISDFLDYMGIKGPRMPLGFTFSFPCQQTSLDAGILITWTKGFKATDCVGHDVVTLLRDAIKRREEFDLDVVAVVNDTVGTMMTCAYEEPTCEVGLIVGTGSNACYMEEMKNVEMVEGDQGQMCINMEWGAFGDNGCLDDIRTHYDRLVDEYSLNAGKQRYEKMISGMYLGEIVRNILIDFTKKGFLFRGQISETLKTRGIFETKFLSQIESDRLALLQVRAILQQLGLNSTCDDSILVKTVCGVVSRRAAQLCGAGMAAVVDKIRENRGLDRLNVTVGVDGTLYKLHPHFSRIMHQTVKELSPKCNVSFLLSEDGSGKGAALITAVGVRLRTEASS
The experiment in a line: SAR analysis of small molecule inhibitors of hexokinase domain containing I (HKDC1) in the hexokinase 1 selectivity assay. [Related pubchem assays (depositor defined):AID493160, AID493190]. It counts as functional.

The target in experiment [4] is T3, Histone-lysine N-methyltransferase NSD2 (Homo sapiens, UniProt O96028).
T3 sequence (O96028 whole entry): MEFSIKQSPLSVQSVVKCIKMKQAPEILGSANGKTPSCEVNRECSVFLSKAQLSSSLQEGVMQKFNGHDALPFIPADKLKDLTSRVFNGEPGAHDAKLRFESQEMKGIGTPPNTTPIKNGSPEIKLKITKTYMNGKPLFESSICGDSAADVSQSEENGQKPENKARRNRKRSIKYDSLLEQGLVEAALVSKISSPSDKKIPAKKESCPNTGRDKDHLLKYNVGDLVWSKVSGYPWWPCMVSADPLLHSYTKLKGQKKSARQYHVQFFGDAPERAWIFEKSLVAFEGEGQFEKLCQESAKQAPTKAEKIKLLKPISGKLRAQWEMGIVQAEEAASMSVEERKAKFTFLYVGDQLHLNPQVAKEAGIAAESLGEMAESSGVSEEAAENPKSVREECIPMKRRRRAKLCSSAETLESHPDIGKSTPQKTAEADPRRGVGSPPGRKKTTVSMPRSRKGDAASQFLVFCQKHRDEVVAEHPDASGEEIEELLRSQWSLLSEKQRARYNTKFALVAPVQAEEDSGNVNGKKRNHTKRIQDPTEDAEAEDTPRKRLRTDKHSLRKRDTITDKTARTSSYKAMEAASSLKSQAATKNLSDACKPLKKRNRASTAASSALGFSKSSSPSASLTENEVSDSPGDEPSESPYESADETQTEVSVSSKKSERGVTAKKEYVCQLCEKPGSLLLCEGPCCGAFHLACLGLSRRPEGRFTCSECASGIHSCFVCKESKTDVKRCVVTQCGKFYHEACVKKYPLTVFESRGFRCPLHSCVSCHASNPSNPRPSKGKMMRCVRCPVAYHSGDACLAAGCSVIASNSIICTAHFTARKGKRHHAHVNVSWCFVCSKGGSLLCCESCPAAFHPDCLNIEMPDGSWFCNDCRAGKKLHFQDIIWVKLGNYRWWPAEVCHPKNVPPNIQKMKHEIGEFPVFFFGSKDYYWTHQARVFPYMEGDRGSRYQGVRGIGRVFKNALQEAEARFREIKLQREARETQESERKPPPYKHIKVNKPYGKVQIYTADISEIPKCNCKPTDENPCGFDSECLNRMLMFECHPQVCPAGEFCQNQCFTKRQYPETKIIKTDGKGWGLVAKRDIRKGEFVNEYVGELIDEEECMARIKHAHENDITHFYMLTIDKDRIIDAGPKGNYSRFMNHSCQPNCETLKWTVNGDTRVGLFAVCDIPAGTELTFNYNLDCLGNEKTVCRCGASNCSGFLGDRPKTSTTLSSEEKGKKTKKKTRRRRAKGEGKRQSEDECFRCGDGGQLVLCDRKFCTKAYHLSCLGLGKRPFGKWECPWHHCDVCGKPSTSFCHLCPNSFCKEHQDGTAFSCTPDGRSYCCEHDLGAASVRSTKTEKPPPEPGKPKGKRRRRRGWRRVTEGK
The experiment is classed as biochemical.

Experiment [5] in a line: decrease of insulin promoter-GFP reporter – imaging, high-content screening, mouse beta cells (AID 1628). The experiment is classed as functional. The conditions noted are these: MIN6.
For experiment [6], the target named is T4, C-C chemokine receptor type 6 (Homo sapiens, UniProt P51684).
T4 sequence (P51684 whole entry): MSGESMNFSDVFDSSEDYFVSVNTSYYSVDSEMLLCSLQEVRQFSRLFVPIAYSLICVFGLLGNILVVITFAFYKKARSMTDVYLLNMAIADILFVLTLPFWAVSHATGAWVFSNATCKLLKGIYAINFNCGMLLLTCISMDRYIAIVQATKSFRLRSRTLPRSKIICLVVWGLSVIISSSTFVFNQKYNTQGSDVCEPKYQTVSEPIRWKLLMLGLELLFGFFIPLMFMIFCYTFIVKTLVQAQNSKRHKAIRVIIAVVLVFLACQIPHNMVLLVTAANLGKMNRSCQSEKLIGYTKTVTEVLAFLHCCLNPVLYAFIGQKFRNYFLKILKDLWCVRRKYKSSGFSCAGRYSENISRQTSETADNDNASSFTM
The experiment in a line: antagonism of CCR6 beta-arrestin recruitment – cell-based, luminescent beta-arrestin readout, dose response (AID 504728). The experiment is classed as functional.

As for `COC(=O)C(O)(c1c(C)[nH]n(-c2ccccc2)c1=O)C(F)(F)F` (stereo unspecified), the IC50 in experiment [1] is 1.15 µM (active).
Turning to `COc1ccc(S(=O)(=O)Nc2cc(SCC(=O)O)c(O)c3ccccc23)cc1`, the CC50 in experiment [2] is 20.6 µM (active). In addition, the IC50 in experiment [3] was > 80 µM (inactive). The AC50 in experiment [4] is 3.56 µM (active).
For `O=C1C(Nc2ccc(O)cc2)=C/C(=N/S(=O)(=O)c2cccs2)c2ccccc21`, the IC50 in experiment [5] was 0.975 µM (active); in experiment [6], > 66.6 µM (inactive).
